Laboratory results as given in US20070191336A1 (priority 2003, published 2007).

Biological target: T1, phospho p-38 alpha kinase (Homo sapiens, UniProt Q16539)
T1 construct: purchased Panvera
Assay: P-38 alpha kinase assay (spectrophotometric, pyruvate kinase/lactate dehydrogenase coupled)
Type: biochemical
Conditions: for IC50: Table 3, rates from […] to 2 h time frame; for inhibition at 0.1 µM / inhibition at 1 µM / inhibition at 10 µM: read-out: % Inhibition @ concentration, Table 3
Procedure: In this assay, the oxidation of NADH was continuously measured spectrophometrically. […] The reaction was initiated by adding ATP. The absorption at 340 nm was monitored continuously for up to 4 hours at 30° C. on Polarstar Optima plate reader (BMG). The kinase activity (reaction rate) was calculated from the slope at the time frame from 1.5 h to 2 h.
For inhibition determinations, test compounds were incubated with the reaction mixture for ˜5 min before adding ATP to start the reaction. […] IC50 values were calculated from a series of % inhibition values determined at a range of concentrations of each inhibitor using Prism to process the data and fit inhibition curves. Generally, the rates obtained at the time frame of 1.5 h to 2 h were used for these calculations.

T1 sequence (Q16539 whole entry): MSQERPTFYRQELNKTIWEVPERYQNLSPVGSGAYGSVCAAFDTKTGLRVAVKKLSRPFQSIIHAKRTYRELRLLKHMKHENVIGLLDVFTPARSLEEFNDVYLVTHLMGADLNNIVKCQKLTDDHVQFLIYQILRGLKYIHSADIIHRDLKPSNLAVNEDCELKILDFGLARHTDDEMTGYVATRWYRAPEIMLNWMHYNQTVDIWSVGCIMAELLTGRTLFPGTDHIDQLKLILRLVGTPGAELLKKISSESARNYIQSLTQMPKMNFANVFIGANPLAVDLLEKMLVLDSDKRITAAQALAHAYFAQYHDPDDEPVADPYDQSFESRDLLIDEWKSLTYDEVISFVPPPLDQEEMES

| IC50 [nM] | SMILES | other results |
| --- | --- | --- |
| 400 | CC(C)(C)c1cc(NC(=O)Nc2ccc(Cl)cc2)n(-c2cccc(C(N)=O)c2)n1 [Example 393, 1-[3-t-butyl-1-(3-carbamoylphenyl)-1H-pyrazol-5-yl]-3-(4-chlorophenyl)urea] | – |
| 56 | CC(C)(C)c1cc(NC(=O)Nc2cccc(F)c2F)n(-c2cccc(CO)c2)n1 [Example 395, 1-{3-t-butyl-1-[3-(hydroxymethyl)phenyl]-1H-pyrazol-5-yl}-3-(2,3-difluorophenyl)urea] | – |
| – | CCOC(=O)c1cccc(-n2nc(C(C)(C)C)cc2NC(=O)Nc2ccc3c(c2)OCO3)c1 [Example 396, ethyl 3-{5-[3-(benzo[d][1,3]dioxo-5-yl)ureido]-3-t-butyl-1H-pyrazol-1-yl}benzoate] | inhibition at 0.1 µM: 3%; inhibition at 1 µM: 56% |
| 40 | CC(C)(C)c1cc(NC(=O)Nc2ccc3c(c2)OCO3)n(-c2cccc(CO)c2)n1 [Example 397, 1-(benzo[d][1,3]dioxol-5-yl)-3-(3-t-butyl-1-(3-(hydroxymethyl)phenyl)-1H -pyrazol-5-yl)urea] | – |
| – | CCOC(=O)Cc1cccc(-n2nc(C(C)(C)C)cc2NC(=O)Nc2ccc3c(c2)OCO3)c1 [Example 399, ethyl 2-(3-{5-[3-(benzo[d][1,3]dioxol-5-yl)ureido]-3-t-butyl-1H-pyrazol-1-yl}phenyl)-acetate] | inhibition at 0.1 µM: 21%; inhibition at 1 µM: 74% |
| – | CC(C)(C)c1cc(NC(=O)Nc2ccc3c(c2)OCO3)n(-c2cccc(CCN)c2)n1 [Example 404, 1-{1-[3-(2-aminoethyl)phenyl]-3-t-butyl-1H-pyrazol-5-yl}-3-(benzo[d][1,3]dioxol-5-yl)urea] | inhibition at 0.1 µM: -11%; inhibition at 1 µM: 48% |
| 13.4 | CC(C)(C)c1cc(NC(=O)Nc2cccc(Cl)c2)n(-c2cccc(CO)c2)n1 [Example 406] | – |
| 10.3 | CC(C)(C)c1cc(NC(=O)Nc2cccc(Br)c2)n(-c2cccc(CO)c2)n1 [Example 407, 1-{3-t-butyl-1-[3-(hydroxymethyl)phenyl]-1H-pyrazol-5-yl}-3-(3-bromophenyl)urea] | – |
| 116 | CC(C)(C)c1cc(NC(=O)Nc2cccc(C(F)(F)F)c2)n(-c2cccc(CO)c2)n1 [Example 408, 1-{3-t-butyl-1-[3-(hydroxymethyl)phenyl]-1H-pyrazol-5-yl}-3-(3-(trifluoromethyl)phenyl)urea] | – |
| 30.9 | COc1cccc(NC(=O)Nc2cc(C(C)(C)C)nn2-c2cccc(CO)c2)c1 [Example 409, 1-{3-t-butyl-1-[3-(hydroxymethyl)phenyl]-1H-pyrazol-5-yl}-3-(3-methoxyphenyl)urea] | – |
| – | COc1ccc(-n2nc(C(C)(C)C)cc2NC(=O)Nc2cccc(F)c2F)cc1 [Example 415, 1-[3-t-butyl-1-(4-methoxyphenyl)-1H-pyrazol-5-yl]-3-(2,3-difluorophenyl)urea] | inhibition at 0.1 µM: 28%; inhibition at 1 µM: 69% |
| – | CCOC(=O)CCc1cccc(-n2nc(C(C)C)cc2NC(=O)Nc2ccc(Cl)cc2)c1 [Example 416, ethyl 3-(3-(5-(3-(4-chlorophenyl)ureido)-3-isopropyl-1H-pyrazol-1-yl)phenyl)propanoate] | inhibition at 0.1 µM: 67%; inhibition at 1 µM: 83% |
| 75 | CC(C)(C)c1cc(NC(=O)Nc2cccc(F)c2F)n(-c2ccc(CO)cc2)n1 [Example 418, 1-{3-t-butyl-1-[4-(hydroxymethyl)phenyl]-1H-pyrazol-5-yl}-3-(2,3-difluoro-phenyl)urea] | – |
| 14.7 | CCOC(=O)Cc1ccc(-n2nc(C(C)(C)C)cc2NC(=O)Nc2ccc(Cl)cc2)cc1 [Example 420, ethyl 2-(4-{3-t-butyl-5-[3-(4-chlorophenyl)ureido]-1H-pyrazol-1-yl}phenyl)acetate] | – |
| 14.7 | CCOC(=O)Cc1ccc(-n2nc(C(C)(C)C)cc2NC(=O)Nc2cccc(Cl)c2Cl)cc1 [Example 421] | – |
| 13 | CC(Cc1cccc(-n2nc(C(C)(C)C)cc2NC(=O)Nc2cccc(Cl)c2Cl)c1)C(=O)O (stereo not drawn) [Example 426, 3-(3-{3-t-butyl-5-[3-(2,3-dichlorophenyl)ureido]-1H-pyrazol-1-yl}-phenyl)-2-methylpropanoic acid] | – |
| 819 | CCOC(=O)C(C)Cc1ccc(-n2nc(C(C)(C)C)cc2NC(=O)Nc2cccc3ccccc23)cc1 (stereo not drawn) [Example 427, ethyl 3-(4-{3-t-butyl-5-[3-(naphthalen-1-yl)ureido]-1H-pyrazol-1-yl}phenyl)-2-methylpropanoate] | – |
| 140 | CC(Cc1ccc(-n2nc(C(C)(C)C)cc2NC(=O)Nc2cccc3ccccc23)cc1)C(=O)O (stereo not drawn) [Example 428, 3-(4-{3-t-butyl-5-[3-(naphthalen-1-yl)ureido]-1H-pyrazol-1-yl}phenyl)-2-methylpropanoic acid] | – |
| 1070 | CCOC(=O)C(C)Cc1ccc(-n2nc(C(C)(C)C)cc2NC(=O)Nc2ccc(Cl)cc2)cc1 (stereo not drawn) [Example 429, ethyl 3-(4-{3-t-butyl-5-[3-(4-chlorophenyl)ureido]-1H-pyrazol-1-yl}phenyl)-2-methylpropanoate] | – |

| IC50 [nM] | SMILES | other results |
| --- | --- | --- |
| 942 | CC(Cc1ccc(-n2nc(C(C)(C)C)cc2NC(=O)Nc2ccc(Cl)cc2)cc1)C(=O)O (stereo not drawn) [Example 430, 3-(4-{3-t-butyl-5-[3-(4-chlorophenyl)ureido]-1H-pyrazol-1-yl}phenyl)-2-methylpropanoic acid] | – |
| – | CC(C)(O)c1cccc(-n2nc(-c3ccccc3)cc2NC(=O)Nc2cccc3ccccc23)c1 [Example 432, 1-{1-[3-(2-hydroxypropan-2-yl)phenyl]-3-phenyl-1H-pyrazol-5-yl}-3-(naphthalen-1-yl)urea] | inhibition at 1 µM: 9%; inhibition at 10 µM: 24% |
| 1900 | O=C(Nc1ccc(Cl)cc1)Nc1cc(-c2ccccc2)nn1-c1ccc(CO)cc1 [Example 434, 1-(4-chlorophenyl)-3-{1-[4-(hydroxymethyl)phenyl]-3-phenyl-1H-pyrazol-5-yl}-urea] | – |
| – | CC(C)c1cc(NC(=O)Nc2cccc3ccccc23)n(-c2cccc(C(C)(C)O)c2)n1 [Example 436, 1-{1-[3-(2-hydroxypropan-2-yl)phenyl]-3-isopropyl-1H-pyrazol-5-yl}-3-(naphthalen-1-yl)urea] | inhibition at 0.1 µM: 16%; inhibition at 1 µM: 41% |
| 1300 | CC(C)c1cc(NC(=O)Nc2ccc(Cl)cc2)n(-c2ccc(CO)cc2)n1 [Example 438, 1-(4-chlorophenyl)-3-{1-[4-(hydroxymethyl)phenyl]-3-isopropyl-1H-pyrazol-5-yl}-urea] | – |
| 920 | CC(C)(O)c1cccc(-n2nc(C(F)(F)F)cc2NC(=O)Nc2cccc3ccccc23)c1 [Example 440] | – |
| 3010 | O=C(Nc1ccc(Cl)cc1)Nc1cc(C(F)(F)F)nn1-c1ccc(CO)cc1 [Example 442, 1-(4-chlorophenyl)-3-{3-(trifluoromethyl)-1-[4-(hydroxyl-methyl)phenyl]-1H-pyrazol-5-yl}urea] | – |
| 5000 | Cc1cc(NC(=O)Nc2cccc3ccccc23)n(-c2cccc(C(C)(C)O)c2)n1 [Example 444, 1-{1-[3-(2-hydroxypropan-2-yl)phenyl]-3-methyl-1H-pyrazol-5-yl}-3-(naphthalen-1-yl)urea] | – |
| – | Cc1cc(NC(=O)Nc2cccc(Cl)c2Cl)n(-c2ccc(CO)cc2)n1 [Example 450, 1-(2,3-dichlorophenyl)-3-{1-[4-(hydroxymethyl)phenyl]-3-methyl-1H pyrazol-5-yl)urea] | inhibition at 1 µM: 89%; inhibition at 10 µM: 192% |
| – | Cc1cc(NC(=O)Nc2cccc3ccccc23)n(-c2ccc(C(O)C(F)(F)F)cc2)n1 (stereo not drawn) [Example 451, 1-{3-methyl-1-[4-(2,2,2-trifluoro-1-hydroxyethyl)phenyl]-1H-pyrazol-5-yl}-3-(naphthalen-1-yl)urea] | inhibition at 1 µM: 3% |
| 100 | O=C(Nc1cccc(Cl)c1)Nc1cc(-c2ccccc2)nn1-c1cccc(CO)c1 [Example 455, 1-{3-phenyl-1-[3-(hydroxymethyl)phenyl]-1H-pyrazol-5-yl}-3-(3-chlorophenyl)urea] | – |
| 40 | O=C(Nc1cccc(Br)c1)Nc1cc(-c2ccccc2)nn1-c1cccc(CO)c1 [Example 456, 1-(3-bromophenyl)-3-{1-[3-(hydroxymethyl)phenyl]-3-phenyl-1H-pyrazol-5-yl}urea] | – |
| 1100 | O=C(Nc1cccc(C(F)(F)F)c1)Nc1cc(-c2ccccc2)nn1-c1cccc(CO)c1 [Example 457, 1-{3-phenyl-1-[3-(hydroxymethyl)phenyl]-1H-pyrazol-5-yl}-3-(3-trifluoromethylphenyl)urea] | – |
| 1000 | COc1cccc(NC(=O)Nc2cc(-c3ccccc3)nn2-c2cccc(CO)c2)c1 [Example 458, 1-{3-phenyl-1-[3-(hydroxymethyl)phenyl]-1H-pyrazol-5-yl}-3-(3-methoxyphenyl)urea] | – |
| 20 | O=C(Nc1cccc(Cl)c1Cl)Nc1cc(-c2ccccc2)nn1-c1cccc(CO)c1 [Example 459, 1-{3-phenyl-1-[3-(hydroxymethyl)phenyl]-1H-pyrazol-5-yl}-3-(2,3-dichlorophenyl)urea] | – |
| 17 | CC(C)(C)c1cc(NC(=O)Nc2cccc3ccccc23)n(-c2ccc(CO)cc2)n1 [Example 461, 1-{3-t-butyl-1-[4-(hydroxymethyl)phenyl]-1H-pyrazol-5-yl}-3-(naphthalen-1-yl)urea] | – |
| 56 | CC(O)c1ccc(-n2nc(C(C)(C)C)cc2NC(=O)Nc2cccc3ccccc23)cc1 (stereo not drawn) [Example 463, 1-{3-t-butyl-1-[4-(1-hydroxyethyl)phenyl]-1H-pyrazol-5-yl}-3-(naphthalen-1-yl)urea] | – |
| 19 | C#CC(O)c1ccc(-n2nc(C(C)(C)C)cc2NC(=O)Nc2cccc3ccccc23)cc1 (stereo not drawn) [Example 464, 1-{3-t-butyl-1-[4-(1-hydroxyprop-2-ynyl)phenyl]-1H-pyrazol-5-yl}-3-(naphthalen-1-yl)urea] | – |
